Assays:
[1] = test system: inflammatory hyperalgesia induced by brewer's yeast in rats; experiment: Inflammatory hyperalgesia induced by brewer's yeast in rats (analgesic activity); assay type: in vivo, male Sprague Dawley rats; settings: oral, pain threshold 3 hours after yeast injection
Experimental: Inflammatory hyperalgesia induced by brewer's yeast in rats : (i) Test Method : Ten male Sprague Dawley rats were used per group. 0.1 ml of 5% brewer's yeast suspended in 0.5% methylcellulose was injected into the right hind paw. The pain threshold was determined 3 hours after yeast injection, by applying pressure to the foot and reading the pressure at which the rat withdrew the foot. The drugs were given orally 2 hours after yeast injection. The pain threshold in the treated animals was compared with that in the control animals.

[2] = test system: collagen induced arthritis in mice; experiment: Effect on collagen induced arthritis in mice (anti-rheumatic activity); assay type: in vivo, male DBA/1 mice; settings: 10 mg/kg, orally once a day for 3 weeks from 10 day after challenge
Experimental: Effect on collagen induced arthritis in mice : (i) Test Method : Eight male DBA/1 mice were used per group. Type II bovine collagen was solublized in 0.1M acetic acid and emulsified in complete Freund's adjuvant (CFA . Mice were primed with 0.2 mg of Type II collagen in CFA intradermally at the base of the tail. Mice were challenged after 21 day with the same procedure. From 10 day after challenge, drug was administered orally once a day for 3 weeks and mice were inspected weekly for visual signs of arthritis. An arthritis index was used to grade limb 0-3, representing joint swelling and erythema (Grade 1), visible joint disorder (Grade 2 and detectable joint ankylosis (Grade 3).

[3] = test system: adjuvant arthritis in rats; experiment: Effect on adjuvant arthritis in rats (antiinflammatory activity); assay type: in vivo, female Sprague-Dawley rats; settings: Rattus norvegicus, po, 552 h, orally once a day for 23 days, read-out: Inhibition of secondary lesion (uninjected paw)
[4] = test system: Delayed Type Hypersensitivity (DTH) response to bovine type II collagen; experiment: Effect on Delayed Type Hypersensitivity (DTH) response to bovine type II collagen; assay type: in vivo, male DBA/1 mice; settings: oral, 24 hours after challenge, mice
[5] = test system: platelet aggregation induced by collagen; experiment: Effect on platelet aggregation induced by collagen (antithrombotic activity); assay type: cell-based; settings: human platelet rich plasma, collagen 0.5 μg/ml, 37° C
Experimental: Effect on platelet aggregation induced by collagen :
Platelet rich plasma (PRP) which contains 3×10^8 platelets/ml was prepared from human blood. To the 245 μl of PRP, 5 μl of drug solution* was added, and then stirred for 2 min at 37° C. To the solution 5 μl of collagen (0.5 μg/ml) was added as an aggregation inducer. Aggregation was measured by using an aggregometer (NKK HEMA-TRACER 1). Activities of inhibitors (test compounds) were expressed as IC50 values i.e. doses required to inhibit the platelet aggregation responses by 50%.
Drug solution* - - - Test compounds were dissolved in dimethylsulfoxide.

`CS(=O)(=O)c1ccc(-c2cc(C(F)(F)F)nn2-c2ccc(F)cc2)cc1` [11-3), 1-(4-Fluorophenyl)-5-[4-(methylsulfonyl)phenyl]-3-(trifluoromethyl)pyrazole] was tested, and the “Relative potency (Control = 1.0)” value ([1]; 32 mg/kg) was 1.35, the “Inhibition of arthritis index” value [2] was 91.7% and the inhibition in vivo at 10 mg/kg [3] was 100%.

In the case of `CSc1ccc(-c2cc(C#N)nn2-c2ccc(F)cc2)cc1` [15-2), 1-(4-Fluorophenyl)-5-[4-(methylthio)phenyl]pyrazole-3-carbonitrile], the “per cent inhibition of DTH response compared with vehicle control” value ([4]; 0.32 mg/kg) is reported as 55.4%, the “per cent inhibition of DTH response compared with vehicle control” value ([4]; 1.0 mg/kg) is reported as 70.9% and the “per cent inhibition of DTH response compared with vehicle control” value ([4]; 3.2 mg/kg) is reported as 69.6%.

For `CS(=O)(=O)c1ccc(-c2cc(C#N)nn2-c2ccc(F)cc2F)cc1` [15-6), 1-(2,4-Difluorophenyl)-5-[4-(methylsulfonyl)phenyl]pyrazole-3-carbonitrile], the “Inhibition of arthritis index” value [2] was 98.9% and the inhibition in vivo at 3.2 mg/kg [3] was 94.3%.

`CS(=O)(=O)c1ccc(-c2ccnn2-c2ccc(F)cc2)cc1` [17-1), 1-(4-Fluorophenyl)-5-[4-(methylsulfonyl)phenyl]pyrazole] gave an inhibition in vivo at 3.2 mg/kg [3] of 80.6%.

For `C[S+]([O-])c1ccc(-c2cc(C#N)nn2-c2ccc(F)cc2F)cc1` (centres unmarked) [33-2), 1-(2,4-Difluorophenyl)-5-[4-(methylsulfinyl)phenyl]pyrazole-3-carbonitrile], the “Inhibition of arthritis index” value [2] was 92.4% and the inhibition in vivo at 3.2 mg/kg [3] was 87.1%.

With `CCNc1ccc(-n2nc(C#N)cc2-c2ccc(S(C)(=O)=O)cc2)cc1` [37-2), 1-[4-(Ethylamino)phenyl]-5-[4-(methylsulfonyl)phenyl]pyrazole-3-carbonitrile] the inhibition in vivo at 3.2 mg/kg [3] was 81.7%.

For `CNc1ccc(-n2nc(C(F)(F)F)cc2-c2ccc(S(C)(=O)=O)cc2)cc1.Cl` [45-8), 1-[4-(Methylamino)phenyl]-5-[4-(methylsulfonyl)-phenyl]-3-(trifluoromethyl)pyrazole hydrochloride], the “Inhibition of arthritis index” value [2] was 83.5% and the inhibition in vivo at 3.2 mg/kg [3] was 80.8%.

With `CS(=O)(=O)c1ccc(-c2cc(C#N)nn2-c2ccc(F)cc2)cc1` [Example 6, 1-(4-fluorophenyl)-5-[4-(methylsulfonyl)phenyl]pyrazole-3-carbonitrile] the “Relative potency (Control = 1.0)” value ([1]; 32 mg/kg) was 1.34, the “Inhibition of arthritis index” value [2] was 78.6% and the “per cent inhibition of DTH response compared with vehicle control” value ([4]; 0.32 mg/kg) was 53.4%. The “per cent inhibition of DTH response compared with vehicle control” value ([4]; 1.0 mg/kg) was 61.5%, the “per cent inhibition of DTH response compared with vehicle control” value ([4]; 3.2 mg/kg) was 74.3% and the inhibition in vivo at 10 mg/kg [3] was 95.6%. It also gave an IC50 [5] of 5.3 µM.

For `C[S+]([O-])c1ccc(-c2cc(C#N)nn2-c2ccc(F)cc2)cc1` (centres unmarked) [Example 24, 1-(4-fluorophenyl)-5-[4-(methylsulfinyl)phenyl]pyrazole-3-carbonitrile], the “Relative potency (Control = 1.0)” value ([1]; 10 mg/kg) was 1.44, the “Inhibition of arthritis index” value [2] was 90.5% and the “per cent inhibition of DTH response compared with vehicle control” value ([4]; 0.32 mg/kg) was 45.9%. For the same compound, the “per cent inhibition of DTH response compared with vehicle control” value ([4]; 1.0 mg/kg) was 66.9%, the “per cent inhibition of DTH response compared with vehicle control” value ([4]; 3.2 mg/kg) was 75.7% and the inhibition in vivo at 3.2 mg/kg [3] was 80.6%.

`CS(=O)(=O)Nc1ccc(-n2nc(C#N)cc2-c2ccc(S(C)(=O)=O)cc2)cc1` [Example 36] showed an inhibition in vivo at 3.2 mg/kg [3] of 84.2%.

`CC(C)Cc1ccc(C(C)C(=O)O)cc1` (centres unmarked) [Ibuprofen, reference compound] gave an inhibition in vivo at 10 mg/kg [3] of 24.7%.

From patent US5134142A, “Pyrazole derivatives, and pharmaceutical composition comprising the same” (Fujisawa Pharmaceutical Co., Ltd., priority 1989, dated 1992)
